# Reference: patent US20140213513A1 (Sanofi, priority 2012, published 2014)
# *1 amine or outer side, *2 acyl side, *3 side chain or, on linkers, in order; H or OH if unused. Where a SMILES comes first, the peptide text is derived from it. Side-chain parts run from the residue outwards. [ ]: non-standard residue; d: D form. The star is where a group is joined. γGlu = O=C(O)[C@H](CCC(=O)[*:2])N[*:1]; Stearoyl = CCCCCCCCCCCCCCCCCC(=O)*; Palmitoyl = CCCCCCCCCCCCCCCC(=O)*; Aib = CC(C)(N)C(=O)O
# Assays:
# Format in all cases: cell-based
# Details in all cases: Table 7; cAMP formation
# [1] = biological target: T1, human GLP-1 receptor (hGLP-1 R) (Homo sapiens, UniProt P43220); test: cAMP response of HEK-293 cells stably expressing human GLP-1 receptor (HTRF)
# T1 construct: expressed in transfected cells
# Procedure: (§1) cAMP content of cells was determined using a kit from Cisbio Corp. (cat. no. 62AM4PEC) based on HTRF (Homogenous Time Resolved Fluorescence). For preparation, cells were split into T175 culture flasks and grown overnight to near confluency in medium (DMEM/10% FBS). Medium was then removed and cells washed with PBS lacking calcium and magnesium, followed by proteinase treatment with accutase (Sigma-Aldrich cat. no. A6964). Detached cells were washed and resuspended in assay buffer (1×HBSS; 20 mM HEPES, 0.1% BSA, 2 mM IBMX) and cellular density determined. They were then diluted to 400000 cells/ml and 25 μl-aliquots dispensed into the wells of 96-well plates. For measurement, 25 μl of test compound in assay buffer was added to the wells, followed by incubation for 30 minutes at room temperature.
# [2] = biological target: T2, human GIP receptor (hGIP R) (Homo sapiens, UniProt P48546); test: cAMP response of HEK-293 cells stably expressing human GIP receptor (HTRF)
# T2 construct: expressed in transfected cells
# T2 sequence (P48546 22-466): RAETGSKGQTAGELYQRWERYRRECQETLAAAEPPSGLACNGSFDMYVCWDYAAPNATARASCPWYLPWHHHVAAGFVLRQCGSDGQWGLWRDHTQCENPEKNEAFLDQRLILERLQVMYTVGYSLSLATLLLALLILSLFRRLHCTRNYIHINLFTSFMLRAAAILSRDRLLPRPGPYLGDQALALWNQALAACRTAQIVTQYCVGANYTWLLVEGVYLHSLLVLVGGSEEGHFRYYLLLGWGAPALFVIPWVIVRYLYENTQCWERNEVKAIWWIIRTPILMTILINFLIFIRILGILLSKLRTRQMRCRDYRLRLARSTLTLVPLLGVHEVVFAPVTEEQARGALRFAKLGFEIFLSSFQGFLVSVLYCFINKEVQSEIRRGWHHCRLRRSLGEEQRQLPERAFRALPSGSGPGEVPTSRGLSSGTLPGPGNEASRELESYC
# Procedure: as §1
# [3] = biological target: T3, human glucagon receptor (hGLUC R) (Homo sapiens, UniProt P47871); test: cAMP response of HEK-293 cells stably expressing human glucagon receptor (HTRF)
# T3 construct: expressed in transfected cells
# Procedure: as §1
# T3 sequence (P47871 26-477): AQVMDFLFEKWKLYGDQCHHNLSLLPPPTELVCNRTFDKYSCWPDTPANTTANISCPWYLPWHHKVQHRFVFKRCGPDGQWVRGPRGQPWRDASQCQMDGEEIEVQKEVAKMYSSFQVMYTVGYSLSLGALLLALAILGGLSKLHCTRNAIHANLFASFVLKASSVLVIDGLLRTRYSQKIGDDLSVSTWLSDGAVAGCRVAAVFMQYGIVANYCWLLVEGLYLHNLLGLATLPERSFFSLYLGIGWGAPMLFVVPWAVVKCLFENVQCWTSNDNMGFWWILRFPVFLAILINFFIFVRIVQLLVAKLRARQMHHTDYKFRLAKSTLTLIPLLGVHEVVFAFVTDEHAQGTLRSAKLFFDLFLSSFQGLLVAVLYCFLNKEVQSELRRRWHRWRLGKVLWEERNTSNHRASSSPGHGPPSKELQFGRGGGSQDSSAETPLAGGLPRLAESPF
# T1 sequence (P43220 24-463): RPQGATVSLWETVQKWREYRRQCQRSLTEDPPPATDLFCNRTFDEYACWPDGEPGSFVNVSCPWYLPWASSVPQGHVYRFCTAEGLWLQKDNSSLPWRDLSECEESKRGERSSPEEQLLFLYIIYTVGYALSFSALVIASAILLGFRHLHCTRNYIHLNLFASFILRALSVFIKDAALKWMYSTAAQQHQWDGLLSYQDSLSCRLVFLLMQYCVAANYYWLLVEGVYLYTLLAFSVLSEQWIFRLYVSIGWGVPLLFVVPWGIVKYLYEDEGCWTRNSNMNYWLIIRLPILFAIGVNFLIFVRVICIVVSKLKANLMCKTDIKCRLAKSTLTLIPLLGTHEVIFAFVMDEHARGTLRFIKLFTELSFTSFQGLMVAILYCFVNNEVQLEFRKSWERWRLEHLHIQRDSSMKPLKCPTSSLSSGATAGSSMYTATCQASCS
Structure (SMILES),EC50 [1] [pM],EC50 [2] [pM],EC50 [3] [pM]
"CCCCCCCCCCCCCCCC(=O)N[C@@H](CCC(=O)NCCCC[C@H](NC(=O)[C@H](CCC(N)=O)NC(=O)[C@@H](NC(=O)[C@H](CO)NC(=O)[C@H](CC(C)C)NC(=O)[C@H](CC(=O)O)NC(=O)[C@H](CO)NC(=O)[C@@H](NC(=O)[C@H](Cc1ccccc1)NC(=O)[C@@H](NC(=O)CNC(=O)[C@H](CCC(N)=O)NC(=O)C(C)(C)NC(=O)[C@@H](N)Cc1ccc(O)cc1)[C@@H](C)O)[C@@H](C)O)[C@@H](C)CC)C(=O)N[C@@H](CC(=O)O)C(=O)N[C@@H](CO)C(=O)N[C@@H](CCCNC(=N)N)C(=O)N[C@@H](C)C(=O)N[C@@H](C)C(=O)N[C@@H](CCC(N)=O)C(=O)N[C@@H](CC(=O)O)C(=O)N[C@@H](Cc1ccccc1)C(=O)N[C@H](C(=O)N[C@@H](CCC(=O)O)C(=O)N[C@@H](Cc1c[nH]c2ccccc12)C(=O)N[C@@H](CC(C)C)C(=O)N[C@@H](CCCCN)C(=O)N[C@@H](CCCNC(=N)N)C(=O)NCC(=O)NCC(=O)N1CCC[C@H]1C(=O)N[C@@H](CO)C(=O)N[C@@H](CO)C(=O)NCC(=O)N[C@@H](C)C(=O)N1CCC[C@H]1C(=O)N1CCC[C@H]1C(=O)N1CCC[C@H]1C(=O)N[C@@H](CO)C(N)=O)[C@@H](C)CC)C(=O)O [SEQ ID NO: 34, Y-Aib-Q-G-T-F-T-S-D-L-S-I-Q-K(yE-x53)-DSRAAQDFIEWLKRGGPSSGAPPPS-NH2] (H-Y[Aib]QGTFTSDLSIQK([γGlu-Palmitoyl])DSRAAQDFIEWLKRGGPSSGAPPPS-NH2)",7.4,51.3,222
"CCCCCCCCCCCCCCCCCC(=O)N[C@@H](CCC(=O)NCCCC[C@H](NC(=O)[C@H](CCC(N)=O)NC(=O)[C@H](CCCCN)NC(=O)[C@H](CO)NC(=O)[C@H](CC(C)C)NC(=O)[C@H](CC(=O)O)NC(=O)[C@H](CO)NC(=O)[C@@H](NC(=O)[C@H](Cc1ccccc1)NC(=O)[C@@H](NC(=O)CNC(=O)[C@H](CCC(N)=O)NC(=O)C(C)(C)NC(=O)[C@@H](N)Cc1ccc(O)cc1)[C@@H](C)O)[C@@H](C)O)C(=O)N[C@@H](CC(=O)O)C(=O)N[C@@H](CCC(=O)O)C(=O)N[C@@H](CCC(=O)O)C(=O)N[C@@H](C)C(=O)N[C@@H](C)C(=O)N[C@@H](CCCNC(=N)N)C(=O)N[C@@H](CC(C)C)C(=O)N[C@@H](Cc1ccccc1)C(=O)N[C@H](C(=O)N[C@@H](CCC(=O)O)C(=O)N[C@@H](Cc1c[nH]c2ccccc12)C(=O)N[C@@H](CC(C)C)C(=O)N[C@@H](CCCCN)C(=O)N[C@@H](C)C(=O)NCC(=O)NCC(=O)N1CCC[C@H]1C(=O)N[C@@H](CO)C(=O)N[C@@H](CO)C(=O)NCC(=O)N[C@@H](C)C(=O)N1CCC[C@H]1C(=O)N1CCC[C@H]1C(=O)N1CCC[C@H]1C(=O)N[C@@H](CO)C(N)=O)[C@@H](C)CC)C(=O)O [SEQ ID NO: 60, Y-Aib-Q-G-T-F-T-S-D-L-S-K-Q-K(yE-x70)-DEEAARLFIEWLKAGGPSSGAPPPS-NH2] (H-Y[Aib]QGTFTSDLSKQK([γGlu-Stearoyl])DEEAARLFIEWLKAGGPSSGAPPPS-NH2)",5.3,16.8,9.1
"CCCCCCCCCCCCCCCC(=O)N[C@@H](CCC(=O)NCCCC[C@H](NC(=O)[C@H](CCC(N)=O)NC(=O)[C@@H](NC(=O)[C@H](CO)NC(=O)[C@H](CC(C)C)NC(=O)[C@H](CC(=O)O)NC(=O)[C@H](CO)NC(=O)[C@@H](NC(=O)[C@H](Cc1ccccc1)NC(=O)[C@@H](NC(=O)CNC(=O)[C@H](CCC(=O)O)NC(=O)C(C)(C)NC(=O)[C@@H](N)Cc1ccc(O)cc1)[C@@H](C)O)[C@@H](C)O)[C@@H](C)CC)C(=O)N[C@@H](CC(=O)O)C(=O)N[C@@H](CCCCN)C(=O)N[C@@H](CCCNC(=N)N)C(=O)N[C@@H](CCCCN)C(=O)N[C@@H](C)C(=O)N[C@@H](CCC(N)=O)C(=O)N[C@@H](CC(=O)O)C(=O)N[C@@H](Cc1ccccc1)C(=O)N[C@H](C(=O)N[C@@H](CCC(=O)O)C(=O)N[C@@H](Cc1c[nH]c2ccccc12)C(=O)N[C@@H](CC(C)C)C(=O)N[C@@H](CCCCN)C(=O)N[C@@H](CC(N)=O)C(=O)NCC(=O)NCC(=O)N1CCC[C@H]1C(=O)N[C@@H](CO)C(=O)N[C@@H](CO)C(=O)NCC(=O)N[C@@H](C)C(=O)N1CCC[C@H]1C(=O)N1CCC[C@H]1C(=O)N1CCC[C@H]1C(=O)N[C@@H](CO)C(N)=O)[C@@H](C)CC)C(=O)O [SEQ ID NO: 54, Y-Aib-E-G-T-F-T-S-D-L-S-I-Q-K(yE-x53)-DKRKAQDFIEWLKNGGPSSGAPPPS-NH2] (H-Y[Aib]EGTFTSDLSIQK([γGlu-Palmitoyl])DKRKAQDFIEWLKNGGPSSGAPPPS-NH2)",66.8,–,2620
"CCCCCCCCCCCCCCCC(=O)N[C@@H](CCC(=O)NCCCC[C@H](NC(=O)[C@H](CCC(N)=O)NC(=O)[C@@H](NC(=O)[C@H](CO)NC(=O)[C@H](CC(C)C)NC(=O)[C@H](CC(=O)O)NC(=O)[C@H](CO)NC(=O)[C@@H](NC(=O)[C@H](Cc1ccccc1)NC(=O)[C@@H](NC(=O)CNC(=O)[C@H](CCC(N)=O)NC(=O)C(C)(C)NC(=O)[C@@H](N)Cc1ccc(O)cc1)[C@@H](C)O)[C@@H](C)O)[C@@H](C)CC)C(=O)N[C@@H](CC(=O)O)C(=O)N[C@@H](CCCCN)C(=O)N[C@@H](CCCNC(=N)N)C(=O)N[C@@H](C)C(=O)N[C@H](C(=O)N[C@@H](CCC(N)=O)C(=O)N[C@@H](CC(C)C)C(=O)N[C@@H](Cc1ccccc1)C(=O)N[C@H](C(=O)N[C@@H](CCC(=O)O)C(=O)N[C@@H](Cc1c[nH]c2ccccc12)C(=O)N[C@@H](CC(C)C)C(=O)N[C@@H](CCCCN)C(=O)N[C@@H](CC(N)=O)C(=O)NCC(=O)NCC(=O)N1CCC[C@H]1C(=O)N[C@@H](CO)C(=O)N[C@@H](CO)C(=O)NCC(=O)N[C@@H](C)C(=O)N1CCC[C@H]1C(=O)N1CCC[C@H]1C(=O)N1CCC[C@H]1C(=O)N[C@@H](CO)C(N)=O)[C@@H](C)CC)C(C)C)C(=O)O [SEQ ID NO: 47, Y-Aib-Q-G-T-F-T-S-D-L-S-I-Q-K(yE-x53)-DKRAVQLFIEWLKNGGPSSGAPPPS-NH2] (H-Y[Aib]QGTFTSDLSIQK([γGlu-Palmitoyl])DKRAVQLFIEWLKNGGPSSGAPPPS-NH2)",15.6,–,2390
"CCCCCCCCCCCCCCCCCC(=O)N[C@@H](CCC(=O)NCCCC[C@H](NC(=O)[C@H](CCC(N)=O)NC(=O)[C@@H](NC(=O)[C@H](CO)NC(=O)[C@H](CC(C)C)NC(=O)[C@H](CC(=O)O)NC(=O)[C@H](CO)NC(=O)[C@@H](NC(=O)[C@H](Cc1ccccc1)NC(=O)[C@@H](NC(=O)CNC(=O)[C@H](CCC(=O)O)NC(=O)C(C)(C)NC(=O)[C@@H](N)Cc1ccc(O)cc1)[C@@H](C)O)[C@@H](C)O)[C@@H](C)CC)C(=O)N[C@@H](CCC(=O)O)C(=O)N[C@@H](CCC(=O)O)C(=O)N[C@@H](CCCNC(=N)N)C(=O)N[C@@H](C)C(=O)N[C@H](C(=O)N[C@@H](CCCNC(=N)N)C(=O)N[C@@H](CC(C)C)C(=O)N[C@@H](Cc1ccccc1)C(=O)N[C@H](C(=O)N[C@@H](CCC(=O)O)C(=O)N[C@@H](Cc1c[nH]c2ccccc12)C(=O)N[C@@H](CC(C)C)C(=O)N[C@@H](CCCCN)C(=O)N[C@@H](C)C(=O)NCC(=O)NCC(=O)N1CCC[C@H]1C(=O)N[C@@H](CO)C(=O)N[C@@H](CO)C(=O)NCC(=O)N[C@@H](C)C(=O)N1CCC[C@H]1C(=O)N1CCC[C@H]1C(=O)N1CCC[C@H]1C(=O)N[C@@H](CO)C(N)=O)[C@@H](C)CC)C(C)C)C(=O)O [SEQ ID NO: 64, Y-Aib-E-G-T-F-T-S-D-L-S-I-Q-K(yE-x70)-EERAVRLFIEWLKAGGPSSGAPPPS-NH2] (H-Y[Aib]EGTFTSDLSIQK([γGlu-Stearoyl])EERAVRLFIEWLKAGGPSSGAPPPS-NH2)",–,9.6,75100
